{"source": "patent US9913870B2", "about": "“Method for stimulating AMP-activated protein kinase” (DHARMA BIOMEDICAL, LLC, priority 2012, dated 2018)", "key": {"[1]": {"system": "3T3-L1 adipocytes", "assay": "Glucose uptake in differentiated adipocytes", "format": "cell-based", "conditions": "72 hours", "description": "3T3-LI preadipocytes were used for glucose uptake and they were differentiated in the same manner as for adipocyte staining. The differentiated adipocytes (0.5×10^6) were treated with increasing concentrations (2-100 μg/ml) of guggul extracts for 72 hours in DMEM medium containing 1 μM insulin. 2,4-Thiazolidinedione (0.005 μM-0.1 μM) was used as a positive control for comparison. After 72 hours, the medium was replaced with starving medium (DMEM without FBS) for 2 hours at 37° C. and then with 3 ml KRH buffer (136 mM NaCl, 4.7 mM KCl, 1.25 mM CaCl2, 1.25 mM Mg SO4, 10 mM Hepes, pH 7.4) with 1 uM insulin at 37° C. for 30 min. For glucose uptake, 4.5 mg/ml glucose was added into the KRH buffer and plates were incubated for another 15 min. The plates were washed 4 times with KRH buffer, cells were lysed with RIPA buffer (0.5 ml/plate). The protein concentration of the extract was estimated and 500 ug extract was used for glucose estimation using the assay kit from Sigma Chemical Co., MO. The absorbance of the reaction mixture was measured at 340 nm and glucose concentration calculated."}, "[2]": {"system": "CCL-110 skin fibroblasts", "assay": "Cytotoxicity assay (MTT, Cell Proliferation I kit)", "format": "cell-based, human", "conditions": "up to 100 μg mL−1, 24 hours", "description": "CCL-110 skin fibroblasts were cultured and plated at a density of 0.5×10^4 cells per well in 96-well tissue culture multiwell plates in EMEM medium. On the next day when cells were attached, they were treated with increasing concentrations (0-100 μg mL^−1) of GU-TC7 and CoQ10 (CoQ10 purchased from Sigma Chemical Co., St. Louis, Mo., U.S.A.) at 37° C. for 24 hours in a CO2 incubator maintained at 5% CO2 and 95% air. Cell proliferation assay was performed using the Cell Proliferation I kit (Roche Biochemicals, Indianapolis, Ind., U.S.A.) according to the manufacturer's protocol. The percentage survival of cells at each concentration was calculated based on the untreated control and plotted against drug concentrations (Cochrane, C. B. et al. “Anticancer effects of Annona glabra plant extracts in human leukemic cell lines” Anticancer Res., 2008, 28:965-971). Cytotoxicity assay was repeated three times with triplicate samples in each and mean values calculated."}, "[3]": {"system": "type I collagen", "assay": "Collagen type I expression ELISA in CCL-110 fibroblasts", "format": "cell-based, human", "conditions": "24 hours, increasing concentrations", "description": "CCL-110 human fibroblast cells (0.5×10^6) were treated with increasing concentrations of GU-TC7 and CoQ10 for 24 hours in 0.5% starving medium. On the next day, the medium was completely removed, washed with phosphate buffered saline once and lysed with 500 μL of 0.05 M acetic acid (pH 2.8-3.0) and 50 μL of pepsin solution by incubating at 4° C. for 48 hours. Later, […] of 10×TBS (1 M Tris, 2 M NaCl, 50 mM CaCl2) was added, and pH was adjusted to 8.0 with 1 N NaOH, and 50 μL of human pancreatic elastase was added followed by the incubation for another 48 hours at 4° C. The cells were scraped and transferred to eppendorf tubes and centrifuged for 10 min at 10 000 rpm. The supernatant was transferred to a new eppendorf tube, and protein concentration of the extract was determined. The type I collagen in the extract was analyzed using the human type 1 collagen ELISA kit from MD Bio-products (St. Paul, […]., U.S.A.)."}, "[4]": {"system": "MMP-1", "assay": "MMP-1 expression ELISA in CCL-110 fibroblasts, with and without TNF-α", "format": "cell-based, human", "parameters": "MMP-1 expression compared to untreated CCL-110 cells: dose or concentration left out as unconfirmed", "conditions": "for MMP-1 protein expression: CCL-110 fibroblasts, 24 hours, 0-100 μg mL−1, without TNF-α", "description": "CCL-110 skin fibroblast cells (10^5 mL^−1) were plated in 0.5% FBS containing EMEM for 24 hours for starvation and then treated with increasing concentrations of GU-TC7 and CoQ10 (0-100 μg mL^−1) for another 24 hours with and without the positive control ([…]). The medium was harvested and analyzed for MMP-1 (ng mL^−1) using the human MMP-1 ELISA kit from R&D Systems (Minneapolis, Minn., U.S.A.) according to the manufacturer's instructions. MMP-1 ELISA studies were repeated three times, with duplicate samples in each assay."}, "[5]": {"system": "human elastase", "assay": "PMN-elastase expression ELISA in CCL-110 fibroblasts", "format": "cell-based", "conditions": "24 hours", "description": "CCL-110 skin fibroblast cells (10^6) were plated in EMEM containing 0.5% FBS and treated with increasing concentrations of GU-TC7 and CoQ10 for 24 hours in a CO2 incubator. The monolayer was lysed with 500 μL of RIPA buffer (50 mM Tris PH 7.4, 150 mM NaCl, 0.1% SDS, 0.5% Sodium deoxycholate, 1% Triton X-100 with one tablet for 25 mL of buffer) and protein concentration of the cellular extract was determined. Cellular extract (100 μg protein) was analyzed for the expression of human elastase using the PMN-Elastase ELISA kit form Alpco Immunoassays (Salem, N.H., U.S.A.)."}, "[6]": {"system": "HSP70", "assay": "HSP70 expression ELISA in Menadione-stressed HepG2 cells", "format": "cell-based, human", "conditions": "50 μM, 3 hours", "description": "A human liver cell line (HepG2) was used to study the expression of HSP70 in GU-MCT treated cells. The cells (2×10^6/4 ml) were grown in Eagles minimal essential medium and treated with 50 μM Menadione (Vitamin K analogue) for 3 hours in order to induce stress in the presence or absence of increasing concentrations of GU-MCT (0-100 μg/ml). The cells were harvested by scraping and cell lysate prepared by homogenizing cells in 0.5 ml of lysis buffer (R&D systems, Minneapolis, Minn.). Protein concentration of cell lysate was estimated and 10 μg protein was used for ELISA. The ELISA kit from R&D systems, MN was used to analyze the HSP70 protein expression (pg/ml) in the cell extract. The percentage of change in HSP70 expression was calculated based on the expression in untreated sample (100%)."}, "[7]": {"system": "HepG2 cells", "assay": "HDL and LDL/VLDL cholesterol quantification in HepG2 cells", "format": "cell-based, human", "description": "HepG2 cells (2×106) were incubated with increasing concentrations of Glucodox (0-100 ug/ml) for 72 hours at 37° C. The cells, after washing with PBS, were lysed with methanol:choloroform […] solution. Both HDL an LDL fractions were separated and estimated using the HDL and LDL/VLDL quantification kit (MBL International Corporation, MA)."}}, "note": "Entries after “also recorded” stand apart in the source; their conditions may differ.", "data": [{"compound": "O=C1CSC(=O)N1", "note": "[2,4 Thiazolidinedione, 2,4-Thiazolidinedione]", "values": [{"measurement": "glucose uptake (insulin sensitivity)", "setting": "[1]", "result": "more potent than the guggul extracts"}]}, {"compound": "COC1=C(OC)C(=O)C(C/C=C(\\C)CC/C=C(\\C)CC/C=C(\\C)CC/C=C(\\C)CC/C=C(\\C)CC/C=C(\\C)CC/C=C(\\C)CC/C=C(\\C)CC/C=C(\\C)CCC=C(C)C)=C(C)C1=O", "note": "[CoQ10, coenzyme Q10]", "values": [{"measurement": "cytotoxic effects on CCL-110 skin fibroblasts", "setting": "[2]", "result": "no cytotoxic effects"}, {"measurement": "cytotoxic effects on CCL-110 skin fibroblasts", "setting": "[2]; listed as Coenzyme Q10", "result": "little cytotoxicity"}, {"measurement": "type I collagen synthesis", "setting": "[3]", "result": "inhibitory trend was noticed with increasing doses"}, {"measurement": "type I collagen synthesis", "setting": "[3]; listed as Coenzyme Q10", "result": "enhanced synthesis of type I collagen"}, {"measurement": "MMP-1 protein expression", "setting": "[4]", "result": "inhibits MMP-1 at 5 μg mL^−1, the inhibition rate remained almost constant with increasing concentrations"}, {"measurement": "MMP-1 protein expression", "setting": "[4]; listed as Coenzyme Q10", "result": "inhibition of MMP-1 expression"}, {"measurement": "human elastase expression", "setting": "[5]", "result": "no such inhibition was evident; also recorded: no inhibition of elastase at any evaluated concentration"}]}, {"compound": "CC1=CC(=O)c2ccccc2C1=O", "note": "[Menadione]", "values": [{"measurement": "down regulation of HSP70 expression", "setting": "[6]", "result": 40, "unit": "%"}]}, {"compound": "CC[C@H](C)C(=O)O[C@H]1CCC=C2C=C[C@H](C)[C@H](CC[C@@H]3C[C@@H](O)CC(=O)O3)[C@H]21", "note": "[Mevastatin]", "values": [{"measurement": "HDL in cellular extracts and cell culture medium", "setting": "[7]", "result": "not induced"}]}, {"compound": "TNF-α", "values": [{"measurement": "MMP-1 expression compared to untreated CCL-110 cells", "setting": "[4]; TNF-α treatment", "result": "three times"}]}]}
